Data reported in patent US20260226068A1, “IMIDAZOTRIAZINE IL-17A MODULATORS AND USES THEREOF” (DICE ALPHA, INC., priority 2023, published 2026).

Experiments:
IL-17A/A = target: T1, IL-17A/A (Homo sapiens, UniProt Q16552); experiment: IL-17A/A HEK-Blue cell assay (SEAP reporter); format: cell-based; conditions: HEK-Blue IL-17A reporter cells, IL17A/A 5 ng/mL, 20 hours, SEAP read at A630; read-out: HEK-Blue IL17AA (IC50 for IL-17A/A inhibition)
T1 construct: purchased Genscript Z03228
T1 sequence (Q16552 24-155): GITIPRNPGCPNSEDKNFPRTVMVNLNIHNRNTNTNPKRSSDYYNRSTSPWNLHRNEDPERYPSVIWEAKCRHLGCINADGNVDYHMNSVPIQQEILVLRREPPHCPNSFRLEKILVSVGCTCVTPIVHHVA

IL-17A/F = target: T2, IL-17A/F (Homo sapiens, UniProt Q16552+Q96PD4); experiment: IL-17A/F HEK-Blue cell assay (SEAP reporter); format: cell-based; conditions: HEK-Blue IL-17A reporter cells, IL17A/F 5 ng/mL, 20 hours, SEAP read at A630; read-out: HEK-Blue IL17AF (IC50 for IL-17A/F inhibition)
T2 construct: purchased R&D Systems
T2 sequence (Q16552 24-155): T1 sequence (Q16552 24-155)
T2 sequence (Q96PD4 31-163): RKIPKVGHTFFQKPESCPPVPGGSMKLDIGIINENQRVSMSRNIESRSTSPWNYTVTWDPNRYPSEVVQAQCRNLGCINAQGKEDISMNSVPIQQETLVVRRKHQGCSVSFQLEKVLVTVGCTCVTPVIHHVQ

SMILES	IC50 (IL-17A/A)	IC50 (IL-17A/F)
CCn1nccc1C(=O)N[C@H](c1cn2nc(C[C@H]3C[C@@H](C(F)(F)F)CNC3=O)c(C3(C)CCOC3)nc2n1)C1CCC(F)(F)CC1 (single isomer, unassigned) [Compound 178]	< 0.1 µM	> 1 µM
CCn1nccc1C(=O)N[C@H](c1cn2nc(C[C@H]3C[C@@H](C(F)(F)F)CNC3=O)c(C3CCOC3)nc2n1)[C@H]1CCCC(F)(F)C1 (single isomer, unassigned) [Compound 203]	< 0.1 µM	< 0.1 µM
CCn1nccc1C(=O)N[C@H](c1cn2nc(CC3C[C@@H](C(F)(F)F)CNC3=O)c(N3CCO[C@@H](C)C3)nc2n1)[C@@H]1CCCC(F)(F)C1 (single isomer, unassigned) [Compound 207]	< 0.1 µM	0.1 to 1 µM
CCn1nccc1C(=O)N[C@H](c1cn2nc(CC3C[C@@H](C(F)(F)F)CNC3=O)c(N3CCO[C@@H](C)C3)nc2n1)[C@@H]1CCCC(F)(F)C1 (single isomer, unassigned) [Compound 208]	< 0.1 µM	0.1 to 1 µM
O=C(N[C@H](c1cn2nc(C[C@H]3C[C@@H](C(F)(F)F)CNC3=O)c(C3CCCOC3)nc2n1)[C@@H]1CCCC(F)(F)C1)c1nonc1C1CC1 (single isomer, unassigned) [Compound 209]	< 0.1 µM	> 1 µM
O=C(N[C@H](c1cn2nc(C[C@H]3C[C@@H](C(F)(F)F)CNC3=O)c(C3CCCOC3)nc2n1)[C@@H]1CCCC(F)(F)C1)c1nonc1C1CC1 (single isomer, unassigned) [Compound 210]	< 0.1 µM	0.1 to 1 µM
CCn1nccc1C(=O)N[C@@H](CCC(C)(C)C(F)(F)F)c1cn2nc(C[C@H]3C[C@@H](C(F)(F)F)CNC3=O)c(C3CCOCC3)nc2n1 (single isomer, unassigned) [Compound 217]	< 0.1 µM	> 1 µM
CCn1nccc1C(=O)N[C@H](c1cn2nc(C[C@H]3C[C@@H](C(F)(F)F)CNC3=O)c(C[C@@H]3CCOC3)nc2n1)C1CCC(F)(F)CC1 (single isomer, unassigned) [Compound 224]	< 0.1 µM	0.1 to 1 µM
CCn1nccc1C(=O)N[C@H](c1cn2nc(C[C@H]3C[C@@H](C(F)(F)F)CNC3=O)c(C[C@H]3CCOC3)nc2n1)C1CCC(F)(F)CC1 (single isomer, unassigned) [Compound 225]	< 0.1 µM	0.1 to 1 µM
CCn1nccc1C(=O)N[C@H](c1cn2nc(C[C@H]3C[C@@H](C(F)(F)F)CNC3=O)c([C@@H](C)N3CCOCC3)nc2n1)C1CCC(F)(F)CC1 (single isomer, unassigned) [Compound 227]	< 0.1 µM	0.1 to 1 µM
CCn1nccc1C(=O)N[C@H](c1cn2nc(C[C@H]3C[C@@H](C(F)(F)F)CNC3=O)c(CN3CCOC[C@H]3C)nc2n1)C1CCC(F)(F)CC1 (single isomer, unassigned) [Compound 231]	< 0.1 µM	0.1 to 1 µM
CCn1nccc1C(=O)N[C@H](c1cn2nc(C[C@H]3C[C@@H](C(F)(F)F)CNC3=O)c(CN3CCOCC3C)nc2n1)C1CCC(F)(F)CC1 (single isomer, unassigned) [Compound 232]	< 0.1 µM	0.1 to 1 µM
CCn1nccc1C(=O)N[C@H](c1cn2nc(C[C@H]3C[C@@H](C(F)(F)F)CNC3=O)c([C@H](C)C3CCOCC3)nc2n1)C1CCC(F)(F)CC1 (single isomer, unassigned) [Compound 251]	< 0.1 µM	> 1 µM
CCn1nccc1C(=O)N[C@H](c1cn2nc(C[C@H]3C[C@@H](C(F)(F)F)CNC3=O)c([C@@H](C)C3CCOCC3)nc2n1)C1CCC(F)(F)CC1 (single isomer, unassigned) [Compound 252]	< 0.1 µM	0.1 to 1 µM
CCn1nccc1C(=O)N[C@H](c1cn2nc(C[C@H]3C[C@@H](C(F)(F)F)CNC3=O)c([C@@H]3CCC(C)(C)OC3)nc2n1)C1CCC(F)(F)CC1 (single isomer, unassigned) [Compound 256]	< 0.1 µM	0.1 to 1 µM
